Assay: Antagonist activity at CCR5 in allo T cells assessed as inhibition of MIP-1beta-induced chemotaxis

With `CCN(C(=O)Cc1ccc(S(C)(=O)=O)cc1)C1CCN(CC[C@@H](c2cc(F)cc(F)c2)C2CCN(S(C)(=O)=O)CC2)CC1` as the molecule, how does the IC50 read?
Its IC50 is 0.69 nM.

Reference: BindingDB's records for doi:10.1016/j.bmcl.2011.12.117 (Astrazeneca, 2012)
